Test results from the supplement of paper PMC10307832.

Tests used:
Assay in all cases: relative viability (nuclei count vs DMSO), 5 days (fraction); higher = more cells survive
Dovitinib + Lapatinib = compound: CN1CCN(c2ccc3nc(-c4c(N)c5c(F)cccc5[nH]c4=O)[nH]c3c2)CC1 [Dovitinib] + CS(=O)(=O)CCNCc1ccc(-c2ccc3ncnc(Nc4ccc(OCc5cccc(F)c5)c(Cl)c4)c3c2)o1 [Lapatinib] (partner 2 µM)
How it was run: (§1)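 Lung cancer cell lines, seeded in 1536-well plates, were treated the following day by pin tool with a single drug or with five library-drug doses (not always all listed) in √10 steps on top of a fixed anchor-drug dose. Cells were fixed and nuclei stained in one step after 5 days, and nuclei were counted. Relative viability is the nuclei count for treated wells divided by that for vehicle wells, reported as medians of duplicate plates.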

Dovitinib + Decitabine = compound: CN1CCN(c2ccc3nc(-c4c(N)c5c(F)cccc5[nH]c4=O)[nH]c3c2)CC1 [Dovitinib] + Nc1ncn([C@H]2C[C@H](O)[C@@H](CO)O2)c(=O)n1 [Decitabine] (partner 2 µM)
How it was run: as §1

Dovitinib + Bortezomib = compound: CN1CCN(c2ccc3nc(-c4c(N)c5c(F)cccc5[nH]c4=O)[nH]c3c2)CC1 [Dovitinib] + CC(C)C[C@H](NC(=O)[C@H](Cc1ccccc1)NC(=O)c1cnccn1)B(O)O [Bortezomib] (partner 0.002 µM)
How it was run: as §1

Dovitinib + AZD7762 = compound: CN1CCN(c2ccc3nc(-c4c(N)c5c(F)cccc5[nH]c4=O)[nH]c3c2)CC1 [Dovitinib] + NC(=O)Nc1cc(-c2cccc(F)c2)sc1C(=O)N[C@H]1CCCNC1 [AZD7762] (partner 0.2 µM)
How it was run: as §1

Cell Line	relative viability (Dovitinib + Lapatinib; first compound 0.02 µM)	relative viability (Dovitinib + Lapatinib; first compound 0.06325 µM)	relative viability (Dovitinib + Lapatinib; first compound 0.2 µM)	relative viability (Dovitinib + Lapatinib; first compound 0.6325 µM)	relative viability (Dovitinib + Lapatinib; first compound 2 µM)	relative viability (Dovitinib + Decitabine; first compound 0.02 µM)	relative viability (Dovitinib + Decitabine; first compound 0.06325 µM)	relative viability (Dovitinib + Decitabine; first compound 0.2 µM)	relative viability (Dovitinib + Decitabine; first compound 0.6325 µM)	relative viability (Dovitinib + Decitabine; first compound 2 µM)	relative viability (Dovitinib + Bortezomib; first compound 0.02 µM)	relative viability (Dovitinib + Bortezomib; first compound 0.06325 µM)	relative viability (Dovitinib + Bortezomib; first compound 0.2 µM)	relative viability (Dovitinib + Bortezomib; first compound 0.6325 µM)	relative viability (Dovitinib + Bortezomib; first compound 2 µM)	relative viability (Dovitinib + AZD7762; first compound 0.02 µM)	relative viability (Dovitinib + AZD7762; first compound 0.06325 µM)	relative viability (Dovitinib + AZD7762; first compound 0.2 µM)	relative viability (Dovitinib + AZD7762; first compound 0.6325 µM)	relative viability (Dovitinib + AZD7762; first compound 2 µM)
A549	1	0.956	0.893	0.817	0.887	0.225	0.329	0.248	0.292	0.237	–	–	–	–	–	–	–	–	–	–
COR-L23	0.918	0.983	1.04	1.01	0.882	0.439	0.43	0.438	0.501	0.484	0.82	1.03	1.06	1.16	1.16	–	–	–	–	–
COR-L 105	0.39	0.367	0.341	0.327	0.407	0.596	0.622	0.619	0.657	0.646	0.779	0.666	0.86	0.84	0.965	–	–	–	–	–
Calu-6	0.99	1.04	1.11	1.08	1.09	–	–	–	–	–	1.05	0.992	1	0.993	0.98	–	–	–	–	–
IA-LM	1.07	0.693	0.709	0.648	0.821	–	–	–	–	–	0.787	1.01	0.666	0.837	0.772	–	–	–	–	–
LK-2	0.878	0.914	0.858	0.83	0.709	0.267	0.333	0.295	0.384	0.268	–	–	–	–	–	0.402	0.549	0.308	0.408	0.274
NCI-H358	0.507	0.417	0.446	0.492	0.438	0.237	0.214	0.247	0.238	0.206	–	–	–	–	–	0.483	0.518	0.444	0.544	0.517
NCI-H520	0.826	0.822	0.903	0.79	0.921	0.477	0.504	0.488	0.499	0.514	0.527	0.725	0.63	0.488	0.348	–	–	–	–	–
NCI-H522	–	–	–	–	–	0.651	0.647	0.665	0.727	0.785	–	–	–	–	–	0.704	0.81	0.878	0.813	0.974
NCI-H661	0.562	0.512	0.51	0.437	0.483	0.573	0.591	0.652	0.571	0.595	0.852	0.746	0.937	0.934	0.85	–	–	–	–	–
NCI-H1299	0.948	1	0.966	0.892	0.966	–	–	–	–	–	0.977	1.03	1.06	1.05	1.03	–	–	–	–	–
